Reference: paper PMC12064818, “A general assay platform to study protein pharmacology using ligand-dependent structural dynamics” (Nature Communications, 2025)
Like-named read-outs stand apart in the source and are kept apart here.

Key:
NLuc = target: T1, NLuc (Oplophorus gracilirostris, UniProt Q9GV45, A31E/A60N/A81I/F95D/I117V/K70R/L54V/L99Q/M102K/N193R/P142E/Q151K/Q38R/Q45L/V71I/Y165I); format: biochemical; settings: - ATP
T1 construct: His tag (inferred from IMAC purification); made in house; host or cells: E. coli
T1 sequence (Q9GV45 other isoform, or with tags, fused parts or gaps with the stated changes): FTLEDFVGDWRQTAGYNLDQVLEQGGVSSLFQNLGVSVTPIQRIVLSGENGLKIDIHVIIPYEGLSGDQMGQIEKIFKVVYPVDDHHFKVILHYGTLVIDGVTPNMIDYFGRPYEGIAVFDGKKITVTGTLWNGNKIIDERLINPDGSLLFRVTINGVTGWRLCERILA
Outline: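 Luminescence was read 10 min after Nano-Glo reagent addition. Enzyme was 1 nM NLuc in PBS/0.05% IGEPAL buffer, with or without ATP.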

[1] = target: FLuc-C-NLuc (firefly luciferase) (Photinus pyralis, UniProt P08659, form not given/L550V); experiment: SDR assay, FLuc-C-NLuc; settings: - ATP
Sequence of FLuc-C-NLuc (firefly luciferase) (P08659 2-550 L550V, form open): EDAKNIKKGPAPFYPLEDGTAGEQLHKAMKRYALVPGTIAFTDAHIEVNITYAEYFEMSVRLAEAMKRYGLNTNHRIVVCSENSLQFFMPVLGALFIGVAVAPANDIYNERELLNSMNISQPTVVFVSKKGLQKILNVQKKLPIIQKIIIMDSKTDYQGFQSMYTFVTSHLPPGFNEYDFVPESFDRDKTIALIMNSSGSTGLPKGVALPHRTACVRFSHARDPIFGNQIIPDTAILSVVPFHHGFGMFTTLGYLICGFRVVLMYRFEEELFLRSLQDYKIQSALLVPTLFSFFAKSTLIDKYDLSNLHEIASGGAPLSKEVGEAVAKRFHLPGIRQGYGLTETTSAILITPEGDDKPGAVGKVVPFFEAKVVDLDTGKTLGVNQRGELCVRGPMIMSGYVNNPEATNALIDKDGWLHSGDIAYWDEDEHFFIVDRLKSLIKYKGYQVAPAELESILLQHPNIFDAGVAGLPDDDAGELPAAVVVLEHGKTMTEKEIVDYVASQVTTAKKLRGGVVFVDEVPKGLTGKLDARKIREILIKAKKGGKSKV

[2] = target: FLuc-C-HiBiT (firefly luciferase) (Photinus pyralis, UniProt P08659, form not given/L550V); experiment: SDR assay, FLuc-C-HiBiT; settings: SDR max. response, clade S
Sequence of FLuc-C-HiBiT (firefly luciferase) (P08659 2-550 L550V, form open): as above

P. pyralis FLuc = P. pyralis FLuc (Photinus pyralis, UniProt P08659); experiment: FLuc enzymatic luminescence assay, P. pyralis FLuc; format: biochemical; settings: FLuc enzymatic assay; for IC50: read-out: IC50 or SDR50 (mM) FLuc E
Sequence of P. pyralis FLuc (P08659 whole entry): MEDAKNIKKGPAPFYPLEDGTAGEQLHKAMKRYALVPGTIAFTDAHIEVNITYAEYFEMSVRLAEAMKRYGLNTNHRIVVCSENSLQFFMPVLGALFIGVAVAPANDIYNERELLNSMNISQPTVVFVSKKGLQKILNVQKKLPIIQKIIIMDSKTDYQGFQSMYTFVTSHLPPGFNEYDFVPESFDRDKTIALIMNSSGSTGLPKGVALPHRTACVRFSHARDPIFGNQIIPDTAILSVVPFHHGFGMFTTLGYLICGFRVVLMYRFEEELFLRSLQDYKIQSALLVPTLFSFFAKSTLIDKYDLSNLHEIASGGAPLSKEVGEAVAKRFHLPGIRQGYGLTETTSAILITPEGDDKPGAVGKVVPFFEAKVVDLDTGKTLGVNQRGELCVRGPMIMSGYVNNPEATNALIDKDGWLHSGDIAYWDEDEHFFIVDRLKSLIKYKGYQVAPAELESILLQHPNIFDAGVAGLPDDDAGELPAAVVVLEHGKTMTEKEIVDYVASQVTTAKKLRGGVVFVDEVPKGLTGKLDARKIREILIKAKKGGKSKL
Outline: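 Runs with and without 10 µM ATP: compounds were pre-incubated with FLuc (1–10 nM, PBS pH 7.4) at ambient temperature, light-protected, for 30–60 min. Luminescence was imaged 5 min after adding 10 µM D-luciferin (final). Inhibition was scaled between DMSO neutral and no-enzyme controls.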

SMILES | Efficacy (%) NLuc (- ATP) (NLuc) [%] | Efficacy (%) FLuc-C-NLuc SDR (-ATP) [1] [%] | % Activity (max response, + ATP) [2] [%] | % Activity (max response, - ATP) [2] [%] | Efficacy (%) FLuc E (P. pyralis FLuc; Clade S follow-up) [%] | pIC50 or pSDR50 FLuc E (P. pyralis FLuc; Clade S follow-up) | IC50 (P. pyralis FLuc; Clade S follow-up) [mM] | pIC50 or pSDR50 FLuc E (P. pyralis FLuc) | IC50 (P. pyralis FLuc) [mM]
CCc1ccc(CNC(=O)C2CCN(C(=O)c3ncn4c3COC(c3ccc(F)cc3)C4)CC2)cc1 (centres unmarked) [NCGC00449815-01] | 0.00 | 0.00 | 20.00 | 0.00 | -15.14 | – | – | – | –
COc1ccc(C2Cn3cnc(C(=O)N4CCC(C(=O)NCc5ccccc5)CC4)c3CO2)cc1 (centres unmarked) [NCGC00449865-01] | 0.00 | 0.00 | 0.00 | 0.00 | 0.00 | – | – | – | –
Cc1ccc(C2Cn3cnc(C(=O)N4CCC(C(=O)NCc5ccc(F)cc5)CC4)c3CO2)cc1 (centres unmarked) [NCGC00449889-01] | 0.00 | 0.00 | 136.15 | 0.00 | -57.95 | 5.01 | 0.00988 | – | –
O=C(Nc1ccc(F)cc1)C1CCN(C(=O)c2ncn3c2COC(c2ccc(F)cc2)C3)CC1 (centres unmarked) [NCGC00449939-01] | 0.00 | 0.00 | 72.23 | 0.00 | -56.35 | 5.01 | 0.00988 | – | –
CCCCNC(=O)C1CCN(C(=O)c2ncn3c2COC(c2ccc(F)cc2)C3)CC1 (centres unmarked) [NCGC00449812-01] | 0.00 | 0.00 | 23.59 | 0.00 | -17.96 | – | – | 4.91 | 0.0124
O=C(NCC1CCCO1)C1CCN(C(=O)c2ncn3c2COC(c2ccc(F)cc2)C3)CC1 (centres unmarked) [NCGC00449835-01] | 0.00 | 0.00 | 54.34 | 0.00 | -45.21 | 5.01 | 0.00988 | – | –
O=C(NCCC1=CCCCC1)C1CCN(C(=O)c2ncn3c2COC(c2ccc(Cl)cc2)C3)CC1 (centres unmarked) [NCGC00449848-01] | 0.00 | 0.00 | 23.50 | -6.50 | -32.57 | 4.91 | 0.0124 | – | –
O=C(NC1CCCCCC1)C1CCN(C(=O)c2ncn3c2COC(c2ccc(F)cc2)C3)CC1 (centres unmarked) [NCGC00449809-01] | 0.00 | 0.00 | 14.91 | 0.00 | -10.94 | – | – | – | –
CC(NC(=O)C1CCN(C(=O)c2ncn3c2COC(c2ccc(F)cc2)C3)CC1)c1ccccc1 (centres unmarked) [NCGC00449824-01] | 0.00 | 0.00 | 0.00 | 0.00 | -12.35 | – | – | – | –
Cc1ccc(C2Cn3cnc(C(=O)N4CCC(C(=O)NC(C)c5ccccc5)CC4)c3CO2)cc1 (centres unmarked) [NCGC00449895-01] | -8.50 | 0.00 | 100.93 | 0.00 | -61.76 | 4.96 | 0.0111 | – | –
